Assay results from patent US8304419B2, “Chemical compounds” (priority 2007, dated 2012).
Where a name gives a salt, the structure may show the parent alone.

System: HIV wild type (WTRVA)
Experiment: HeLa cell assay, wild type virus (WTRVA)
Assay type: cell-based, HIV-1
Set-up: scale not given here
Conditions: Human immunodeficiency virus 1, HeLa, HeLa cell assay; read-out: IC50 against WTRVA

**Q.** Which IC50 does the source give for N#Cc1cc(Oc2c(Cl)ccc(CNC(=O)c3[nH]c(N)nc3Cl)c2F)cc(C2CC2)c1 [Example 307, 2-amino-4-chloro-N-({4-chloro-3-[(3-cyano-5-cyclopropylphenyl)oxy]-2-fluorophenyl}methyl)-1H-imidazole-5-carboxamide trifluoroacetate] here?
**A.** < 10 nM

**Q.** Which IC50 does the source give for C=CCc1cc(C#N)cc(Oc2c(Cl)ccc(CNC(=O)c3[nH]cnc3Cl)c2F)c1 [Example 156, 4-chloro-N-[(4-chloro-3-{[3-cyano-5-(2-propen-1-yl)phenyl]oxy}-2-fluorophenyl)methyl]-1′-1H-imidazole-5-carboxamide] here?
**A.** < 10 nM

**Q.** How did the IC50 turn out when Cc1nc(Cl)c(C(=O)NCc2ccc(Cl)c(Oc3cc(Br)cc(C#N)c3)c2F)[nH]1 [Example 299, N-({3-[(3-bromo-5-cyanophenyl)oxy]-4-chloro-2-fluorophenyl}methyl)-4-chloro-2-methyl-1H-imidazole-5-carboxamide] was run?
**A.** < 10 nM

**Q.** Which IC50 does the source give for C#Cc1cc(Cl)cc(Oc2c(Cl)ccc(CNC(=O)c3[nH]cnc3Cl)c2F)c1 [Example 293, 4-chloro-N-({4-chloro-3-[(3-chloro-5-ethynylphenyl)oxy]-2-fluorophenyl}methyl)-1H-imidazole-5-carboxamide] here?
**A.** < 10 nM

**Q.** With N#Cc1cc(Cl)cc(Oc2c(Cl)ccc(Cn3cnc4cc[nH]c4c3=O)c2F)c1 [Example 369, 3-chloro-5-({6-chloro-2-fluoro-3-[(4-oxo-4,5-dihydro-3H-pyrrolo[3,2-d]pyrimidin-3-yl)methyl]phenyl}oxy)benzonitrile] as the molecule, how does the IC50 read?
**A.** < 10 nM

**Q.** COc1cc(C#N)cc(Oc2c(Cl)ccc(CNC(=O)c3[nH]c(N)nc3Cl)c2F)c1 [Example 366, 2-amino-4-chloro-N-[(4-chloro-3-{[3-cyano-5-(methyloxy)phenyl]oxy}-2-fluorophenyl)methyl]-1H-imidazole-5-carboxamide trifluoroacetate] was tested. Which IC50 did it give?
**A.** < 10 nM

**Q.** For N#Cc1cc(Cl)cc(Oc2c(Cl)ccc(CNC(=O)c3[nH]ccc3Cl)c2F)c1 [Example 128, 3-chloro-N-({4-chloro-3-[(3-chloro-5-cyanophenyl)oxy]-2-fluorophenyl}methyl)-1H-pyrrole-2-carboxamide], which IC50 is on record?
**A.** < 10 nM

**Q.** Which IC50 does the source give for Cc1nc(Br)c(C(=O)NCc2ccc(Br)c(Oc3cc(Cl)cc(C#N)c3)c2F)[nH]1 [Example 233, 4-bromo-N-({4-bromo-3-[(3-chloro-5-cyanophenyl)oxy]-2-fluorophenyl}methyl)-2-methyl-1H-imidazole-5-carboxamide] here?
**A.** < 10 nM

**Q.** For N#Cc1cc(Cl)cc(Oc2c(Cl)ccc(CNC(=O)c3[nH]c(N)nc3Cl)c2F)c1 [Example 230, 2-amino-4-chloro-N-({4-chloro-3-[(3-chloro-5-cyanophenyl)oxy]-2-fluorophenyl}methyl)-1H-imidazole-5-carboxamide trifluoroacetate], which IC50 is on record?
**A.** < 10 nM

Same assay, conditions: Human immunodeficiency virus 1, HeLa, HeLa-CD4-LTR-β-gal cells, wild type virus; read-out: WTRVA activity level

**Q.** For N#Cc1cc(Cl)cc(Oc2c(Cl)ccc(CNC(=O)c3csc(-c4cccnc4)n3)c2F)c1 [Example 98, N-({4-chloro-3-[(3-chloro-5-cyanophenyl)oxy]-2-fluorophenyl}methyl)-2-(3-pyridinyl)-1,3-thiazole-4-carboxamide trifluoroacetate], which IC50 is on record?
**A.** < 10 nM

**Q.** For CS(=O)(=O)c1ccc(C(=O)NCc2ccc(Cl)c(Oc3cc(Cl)cc(C#N)c3)c2)c(Cl)c1 [Example 8, 2-chloro-N-({4-chloro-3-[(3-chloro-5-cyanophenyl)oxy]phenyl}methyl)-4-(methylsulfonyl)benzamide], which IC50 is on record?
**A.** 10 to 1000 nM

**Q.** COc1ccc2[nH]c3c(c2c1)CCN(Cc1ccc(Cl)c(Oc2cc(Cl)cc(C#N)c2)c1F)C3=O [Example 38, 3-chloro-5-[(6-chloro-2-fluoro-3-{[6-(methyloxy)-1-oxo-1,3,4,9-tetrahydro-2H-β-carbolin-2-yl]methyl}phenyl)oxy]benzonitrile] was tested. Which IC50 did it give?
**A.** 10 to 1000 nM

**Q.** N#Cc1cc(Cl)cc(Oc2c(Cl)ccc(CNC(=O)c3cc4cc(OC(F)(F)F)ccc4[nH]3)c2F)c1 [Example 27, N-({4-chloro-3-[(3-chloro-5-cyanophenyl)oxy]-2-fluorophenyl}methyl)-5-[(trifluoromethyl)oxy]-1H-indole-2-carboxamide] was tested. Which IC50 did it give?
**A.** 10 to 1000 nM

**Q.** How did the IC50 turn out when CS(=O)(=O)c1ccc(C(=O)NCc2ccc(Cl)c(Oc3cc(Cl)cc(C#N)c3)c2F)cc1 [Example 92, N-({4-chloro-3-[(3-chloro-5-cyanophenyl)oxy]-2-fluorophenyl}methyl)-4-(methylsulfonyl)benzamide] was run?
**A.** 10 to 1000 nM

**Q.** How did the IC50 turn out when N#Cc1cc(Cl)cc(Oc2c(Cl)ccc(CNC(=O)c3cc4cc(OCC(CO)CO)ccc4[nH]3)c2F)c1 [Example 22, N-({4-chloro-3-[(3-chloro-5-cyanophenyl)oxy]-2-fluorophenyl}methyl)-5-{[3-hydroxy-2-(hydroxymethyl)propyl]oxy}-1H-indole-2-carboxamide] was run?
**A.** < 10 nM

**Q.** How did the IC50 turn out when COc1ccc2cc(C(=O)NCc3ccc(Cl)c(Oc4cc(Cl)cc(C#N)c4)c3)[nH]c2c1 [Example 7, N-({4-chloro-3-[(3-chloro-5-cyanophenyl)oxy]phenyl}methyl)-6-(methyloxy)-1H-indole-2-carboxamide] was run?
**A.** 10 to 1000 nM

**Q.** Which IC50 does the source give for N#Cc1cc(Cl)cc(Oc2c(Cl)ccc(CNC(=O)c3cc4cc(Cl)ccc4[nH]3)c2F)c1 [Example 109, 5-chloro-N-({4-chloro-3-[(3-chloro-5-cyanophenyl)oxy]-2-fluorophenyl}methyl)-1H-indole-2-carboxamide] here?
**A.** 10 to 1000 nM

**Q.** With N#Cc1cc(Cl)cc(Oc2c(Cl)ccc(CNC(=O)c3ccno3)c2F)c1 [Example 93, N-({4-chloro-3-[(3-chloro-5-cyanophenyl)oxy]-2-fluorophenyl}methyl)-5-isoxazolecarboxamide] as the molecule, how does the IC50 read?
**A.** 10 to 1000 nM

**Q.** How did the IC50 turn out when Cc1cc(Br)cc2cc(C(=O)NCc3ccc(Cl)c(Oc4cc(Cl)cc(C#N)c4)c3F)[nH]c12 [Example 30, 5-bromo-N-({4-chloro-3-[(3-chloro-5-cyanophenyl)oxy]-2-fluorophenyl}methyl)-7-methyl-1H-indole-2-carboxamide] was run?
**A.** 10 to 1000 nM

**Q.** For N#Cc1cc(Cl)cc(Oc2c(Cl)ccc(CNC(=O)c3cc4cc(NC(=O)[C@@H]5CCCN5)ccc4[nH]3)c2F)c1 [Example 118, N-({4-chloro-3-[(3-chloro-5-cyanophenyl)oxy]-2-fluorophenyl}methyl)-5-(L-prolylamino)-1H-indole-2-carboxamide trifluoroacetate], which IC50 is on record?
**A.** < 10 nM

**Q.** How did the IC50 turn out when N#Cc1cc(Cl)cc(Oc2c(Cl)ccc(CNC(=O)c3nc4ccccc4[nH]3)c2F)c1 [Example 35, N-({4-chloro-3-[(3-chloro-5-cyanophenyl)oxy]-2-fluorophenyl}methyl)-1H-benzimidazole-2-carboxamide] was run?
**A.** < 10 nM

**Q.** N#Cc1cc(Cl)cc(Oc2c(Cl)ccc(CNC(=O)c3[nH]ccc3Cl)c2F)c1 [Example 128, 3-chloro-N-({4-chloro-3-[(3-chloro-5-cyanophenyl)oxy]-2-fluorophenyl}methyl)-1H-pyrrole-2-carboxamide] was tested. Which IC50 did it give?
**A.** < 10 nM

**Q.** How did the IC50 turn out when COC(=O)c1ccc(C(=O)NCc2ccc(Cl)c(Oc3cc(Cl)cc(C#N)c3)c2)cc1 [Example 11, Methyl 4-{[({4-chloro-3-[(3-chloro-5-cyanophenyl)oxy]phenyl}methyl)amino]carbonyl}benzoate] was run?
**A.** > 1000 nM

**Q.** Which IC50 does the source give for COc1ccc(C(=O)NCc2ccc(Cl)c(Oc3cc(Cl)cc(C#N)c3)c2F)cn1 [Example 42, N-({4-chloro-3-[(3-chloro-5-cyanophenyl)oxy]-2-fluorophenyl}methyl)-6-(methyloxy)-3-pyridinecarboxamide] here?
**A.** 10 to 1000 nM

**Q.** Which IC50 does the source give for N#Cc1cc(Cl)cc(Oc2c(Cl)ccc(CNC(=O)c3cc4cc([N+](=O)[O-])ccc4[nH]3)c2F)c1 [Example 19, N-({4-chloro-3-[(3-chloro-5-cyanophenyl)oxy]-2-fluorophenyl}methyl)-5-nitro-1H-indole-2-carboxamide] here?
**A.** < 10 nM

**Q.** For COc1ccc(C(=O)NCc2ccc(Cl)c(Oc3cc(Cl)cc(C#N)c3)c2)c(C)c1 [Example 2, N-({4-chloro-3-[(3-chloro-5-cyanophenyl)oxy]phenyl}methyl)-2-methyl-4-(methyloxy)benzamide], which IC50 is on record?
**A.** > 1000 nM

**Q.** CC(=O)Nc1ccc2cc(C(=O)NCc3ccc(Cl)c(Oc4cc(Cl)cc(C#N)c4)c3F)[nH]c2c1 [Example 122, 6-(acetylamino)-N-({4-chloro-3-[(3-chloro-5-cyanophenyl)oxy]-2-fluorophenyl}methyl)-1H-indole-2-carboxamide] was tested. Which IC50 did it give?
**A.** < 10 nM

**Q.** N#Cc1cc(Cl)cc(Oc2c(Cl)ccc(CNC(=O)c3snnc3-c3ccccc3)c2F)c1 [Example 99, N-({4-chloro-3-[(3-chloro-5-cyanophenyl)oxy]-2-fluorophenyl}methyl)-4-phenyl-1,2,3-thiadiazole-5-carboxamide] was tested. Which IC50 did it give?
**A.** > 1000 nM

**Q.** For N#Cc1cc(Cl)cc(Oc2c(Cl)ccc(CNC(=O)c3cc([N+](=O)[O-])c[nH]3)c2F)c1 [Example 70, N-({4-chloro-3-[(3-chloro-5-cyanophenyl)oxy]-2-fluorophenyl}methyl)-4-nitro-1H-pyrrole-2-carboxamide trifluoroacetate], which IC50 is on record?
**A.** < 10 nM

**Q.** Which IC50 does the source give for N#Cc1cc(Cl)cc(Oc2c(Cl)ccc(CNC(=O)c3cn[nH]c3)c2F)c1 [Example 100, N-({4-chloro-3-[(3-chloro-5-cyanophenyl)oxy]-2-fluorophenyl}methyl)-1H-pyrazole-4-carboxamide trifluoroacetate] here?
**A.** < 10 nM

**Q.** For N#Cc1cc(Cl)cc(Oc2c(Cl)ccc(CNC(=O)c3[nH]c4ccccc4c3Br)c2F)c1 [Example 53, 3-bromo-N-({4-chloro-3-[(3-chloro-5-cyanophenyl)oxy]-2-fluorophenyl}methyl)-1H-indole-2-carboxamide], which IC50 is on record?
**A.** 10 to 1000 nM

**Q.** How did the IC50 turn out when Cc1cccc2cc(C(=O)NCc3ccc(Cl)c(Oc4cc(Cl)cc(C#N)c4)c3F)[nH]c12 [Example 108, N-({4-chloro-3-[(3-chloro-5-cyanophenyl)oxy]-2-fluorophenyl}methyl)-7-methyl-1H-indole-2-carboxamide] was run?
**A.** 10 to 1000 nM

**Q.** With CSc1ncc(Cl)c(C(=O)NCc2ccc(Cl)c(Oc3cc(Cl)cc(C#N)c3)c2F)n1 [Example 101, 5-chloro-N-({4-chloro-3-[(3-chloro-5-cyanophenyl)oxy]-2-fluorophenyl}methyl)-2-(methylthio)-4-pyrimidinecarboxamide] as the molecule, how does the IC50 read?
**A.** 10 to 1000 nM

**Q.** N#Cc1cc(Cl)cc(Oc2c(Cl)ccc(CNC(=O)c3cccnc3)c2F)c1 [Example 94, N-({4-chloro-3-[(3-chloro-5-cyanophenyl)oxy]-2-fluorophenyl}methyl)-3-pyridinecarboxamide trifluoroacetate] was tested. Which IC50 did it give?
**A.** 10 to 1000 nM
